# In patent US20180147206A1, “ACTIVATION OF NEURONAL STORE-OPERATED CALCIUM ENTRY PATHWAY FOR THE TREATMENT OF ALZHEIMER'S DISEASE” (The Board of Regents of the University of Texas System, priority 2015, published 2018):
# How the values were obtained:
# TRPC6 = molecular target: T1, TRPC6 (Homo sapiens, UniProt Q9Y210); experiment: Fura-2 Ca2+ imaging in TRPC6-transfected HEK293 cells; assay type: cell-based; conditions: for potentiation of OAG-induced responses: preincubation 1 μM, 100 μM OAG
# T1 construct: expressed in transfected cells; host or cells: HEK293
# T1 sequence (Q9Y210 1-931): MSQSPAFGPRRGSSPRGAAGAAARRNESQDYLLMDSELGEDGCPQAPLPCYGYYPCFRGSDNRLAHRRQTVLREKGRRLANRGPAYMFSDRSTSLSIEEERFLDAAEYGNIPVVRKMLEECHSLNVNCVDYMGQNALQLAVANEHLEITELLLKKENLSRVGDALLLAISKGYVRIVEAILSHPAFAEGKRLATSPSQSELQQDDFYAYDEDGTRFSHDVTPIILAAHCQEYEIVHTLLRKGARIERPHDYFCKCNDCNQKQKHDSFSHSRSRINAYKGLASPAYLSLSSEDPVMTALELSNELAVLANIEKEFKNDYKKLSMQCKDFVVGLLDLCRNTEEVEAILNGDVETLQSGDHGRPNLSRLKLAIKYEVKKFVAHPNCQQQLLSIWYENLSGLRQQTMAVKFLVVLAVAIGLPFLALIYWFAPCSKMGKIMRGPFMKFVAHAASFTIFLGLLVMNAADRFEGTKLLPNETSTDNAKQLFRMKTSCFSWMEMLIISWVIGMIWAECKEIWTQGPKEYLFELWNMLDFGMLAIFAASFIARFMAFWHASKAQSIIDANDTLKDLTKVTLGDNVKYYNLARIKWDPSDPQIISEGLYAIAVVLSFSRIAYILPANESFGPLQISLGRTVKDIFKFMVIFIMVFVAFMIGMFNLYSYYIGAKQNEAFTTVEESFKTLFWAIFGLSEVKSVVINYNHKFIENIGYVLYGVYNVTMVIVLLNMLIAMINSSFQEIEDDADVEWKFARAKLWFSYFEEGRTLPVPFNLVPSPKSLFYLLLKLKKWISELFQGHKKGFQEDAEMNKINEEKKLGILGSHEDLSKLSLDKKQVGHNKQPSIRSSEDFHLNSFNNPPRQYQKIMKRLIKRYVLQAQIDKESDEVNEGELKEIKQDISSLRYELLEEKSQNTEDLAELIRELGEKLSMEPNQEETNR
# [1] = tested on: other TRPCs (TRPC1-7), Orais (Orai1-3), or combination of TRPC6 and Orai2; experiment: Fura-2 Ca2+ imaging in HEK293 cells transfected with other TRPCs, Orais or TRPC6 plus Orai2; assay type: cell-based; conditions: 1 μM (data not shown)
# Description: To confirm the target for Hyp and NSN compounds, the inventors overexpressed TRPC6 in HEK293 cells and performed a series of Fura-2 Ca^2+ imaging experiments. […] In additional experiments, the inventors evaluated effects of 1 μM NSN compound in experiments with HEK293 cells transfected with other TRPCs (TRPC1-7), Orais (Orail-3), or combination of TRPC6 and Orai2. […] From these experiments, the inventors concluded that Hyp acts as direct activator of TRPC6 channels, but the actions of NSN compound are more complex. In further experiments, the inventors measured SOC in conditions of store depletion. To achieve this, HEK239 cells were preincubated in Ca^2+-free media containing 1 μM Tg. In these experiments, the inventors observed endogenous SOC response in EGFP-transfected cells, which was further enhanced in TRPC6-transfected cells. […] TRPC6 channels are known to be activated by DAG (Estacion et al., 2004). In spine nSOC measurements, addition of 100 μM DHPG was required to generate robust Ca^2+ responses. Thus, in the next series of experiments, the inventors evaluated effects of OAG, a synthetic and stable analog of DAG.
# amyloid plaques = experiment: Aβ immunohistochemistry, amyloid plaque load in APPKI mice; assay type: in vivo, mouse; conditions: 13 month-old APPKI mice; i.p. 10 mg/kg three times per week for 8 weeks
# APPKIGFP and WTGFP mice = experiment: Contextual fear conditioning test; assay type: in vivo, mouse; conditions: i.p. 10 mg/kg
smiles,measurement,setting,value
"CC(=O)Nc1ccc(CCNc2ncnc3ccc(N)cc23)cc1 [NSN21778, N-{4-[2-(6-Amino-quinazolin-4-ylamino)-ethyl]-phenyl}-acetamide]",SOC in conditions of store depletion,TRPC6; GFP or TRPC6 HEK293 cells preincubated in Ca2+-free media with 1 μM Tg (data not shown),no additional effect
same,Ca2+ influx,"TRPC6; TRPC6-transfected HEK293 cells, 1 μM, 2 mM Ca2+",did not trigger Ca^2+ influx
same,potentiation of OAG-induced responses,"TRPC6; TRPC6-transfected cells, stores partially depleted (0.1 mM Ca2+)",significant potentiation
same,potentiation of OAG-induced responses,"TRPC6; control GFP cells, stores partially depleted",not in control GFP cells
same,Ca2+ influx,[1],failed to induce Ca^2+ influx
same,plaque intensity,amyloid plaques,significant reduction
same,total plaque area,amyloid plaques,significant reduction
same,contextual fear conditioning phenotype,APPKIGFP and WTGFP mice; 6.5 month-old APPKIGFP mice,fully rescued
same,contextual fear conditioning responses,"APPKIGFP and WTGFP mice; WTGFP mice, difference to control not statistically significant",somewhat impaired responses
same,toxicity in injected mice,"i.p. 10 mg/kg 3 times per week, WTGFP, PS1KIGFP and APPKIGFP mice",not observed any obvious toxicity
same,body weight,"i.p. 10 mg/kg, following 10 weeks treatment",some weight loss
